In assay [1] the target is T1, Leukotriene B4 receptor (Homo sapiens, UniProt Q9NPC1+Q15722). The assay is described as follows: Ability to inhibit LTB4 binding to LTB receptors on isolated human neutrophils. Format: protein assay.
Assay [2] deals with T1, Leukotriene B4 receptor. Put plainly: Ability to inhibit LTB4-induced chemotaxis of isolated human neutrophils. Format: functional.
Assay [3] deals with T1, Leukotriene B4 receptor. The assay is described as follows: Ability to inhibit LTB4-induced CD11b up-regulation on isolated human neutrophils. Type of assay: functional.
In assay [4] the target is T1, Leukotriene B4 receptor. The assay is described as follows: Ability to inhibit LTB4-induced CD11b up-regulation on isolated human neutrophils in whole blood. Format: functional, tissue-based.

Broadly, the IC50 is the concentration needed to halve the response being measured. Read a high IC50 as weaker potency in that assay. In the case of `O=C(O)c1ccc(F)cc1-c1ccc2c(c1)OC[C@H](CCc1ccccc1)[C@H]2O`, the IC50 on Leukotriene B4 receptor [1] is recorded as 35 nM; at Leukotriene B4 receptor [2] it was 32 nM.

As to `O=C(O)c1ccc(Cl)cc1-c1ccc2c(c1)OC[C@H](Cc1ccc(-c3ccccc3)cc1)[C@H]2O` (stereo in doubt; 22), the IC50 amounted to 4 nM at Leukotriene B4 receptor [1], 6 nM on Leukotriene B4 receptor [2], 520 nM on Leukotriene B4 receptor [3] and 1700 nM against Leukotriene B4 receptor [4].

As to `O[C@H]1c2ccc(-c3cc(F)ccc3-c3nn[nH]n3)cc2OC[C@@H]1Cc1ccccc1`, the concentration for half-maximal inhibition (IC50) on Leukotriene B4 receptor [1] is 20 nM; against Leukotriene B4 receptor [2], 110 nM.

For the compound `O=C(O)c1ccc(C(F)(F)F)cc1-c1ccc2c(c1)OC[C@H](Cc1ccc(-c3ccccc3)cc1)[C@H]2O` (stereo in doubt; 27), the IC50 at Leukotriene B4 receptor [1] came to 27 nM; against Leukotriene B4 receptor [2], 7 nM; against Leukotriene B4 receptor [3] it was 820 nM; at Leukotriene B4 receptor [4], 4000 nM.

Consider `O=C(O)c1ccc(C(F)(F)F)cc1-c1ccc2c(c1)OC[C@H](Cc1ccccc1)[C@H]2O` (stereo in doubt; 16) [CP-195543], for which the IC50 is reported as 6.8 nM on Leukotriene B4 receptor [1], 2.4 nM against Leukotriene B4 receptor [2], 280 nM on Leukotriene B4 receptor [3] and 660 nM at Leukotriene B4 receptor [4].

With `O=C(O)c1ccc(Cl)cc1-c1ccc2c(c1)OC[C@H](Cc1ccc3ccccc3c1)[C@H]2O`, the IC50 amounted to 100 nM on Leukotriene B4 receptor [1] and 2250 nM on Leukotriene B4 receptor [2].

For the compound `O=C(O)c1ccc(F)cc1-c1ccc2c(c1)OC[C@H](Cc1ccc(-c3ccccc3)cc1)[C@H]2O` (stereo in doubt; 24), the IC50 is recorded as 4 nM on Leukotriene B4 receptor [1], 56 nM at Leukotriene B4 receptor [2], 280 nM on Leukotriene B4 receptor [3] and 700 nM against Leukotriene B4 receptor [4].

`O=C(O)c1ccc(Cl)cc1-c1ccc2c(c1)OC[C@H](Cc1ccccc1)[C@H]2O` (stereo in doubt; 6): the IC50 worked out at 14 nM on Leukotriene B4 receptor [1], 30 nM against Leukotriene B4 receptor [2], 265 nM on Leukotriene B4 receptor [3] and 1300 nM on Leukotriene B4 receptor [4].

In the case of `NS(=O)(=O)c1ccc(F)cc1-c1ccc2c(c1)OC[C@H](Cc1ccccc1)[C@H]2O`, the IC50 on Leukotriene B4 receptor [1] is 37 nM; on Leukotriene B4 receptor [2], 17 nM; against Leukotriene B4 receptor [3], 540 nM; against Leukotriene B4 receptor [4], more than 10000 nM.

With `COC(=O)c1ccc(Cl)cc1-c1ccc2c(c1)OC[C@H](Cc1ccccc1)[C@H]2O`, the values for the 50% inhibitory concentration (IC50) at Leukotriene B4 receptor [1] and at Leukotriene B4 receptor [2] were 1700 nM and 6400 nM, respectively.

On to `O=C(O)c1ccc(C(F)(F)F)cc1-c1ccc2c(c1)OC[C@H](Cc1ccccc1)[C@H]2O` (stereo in doubt; 17) [CP-195543], for which the IC50 is listed as 56 nM on Leukotriene B4 receptor [1] and 2 nM at Leukotriene B4 receptor [2].

For the compound `O=C(O)c1ccc(Cl)cc1-c1ccc2c(c1)OC[C@H](Cc1ccc(C(F)(F)F)cc1)[C@H]2O`, the concentration for half-maximal inhibition (IC50) on Leukotriene B4 receptor [1] amounted to 400 nM; against Leukotriene B4 receptor [2] it was 9000 nM.

Turning to `O=C(O)c1ccc(F)cc1-c1ccc2c(c1)OC[C@H](Cc1ccccc1)[C@H]2O` (stereo in doubt; 10), the IC50 came to 27 nM on Leukotriene B4 receptor [1], 5 nM against Leukotriene B4 receptor [2], 3000 nM at Leukotriene B4 receptor [3] and 3500 nM against Leukotriene B4 receptor [4].

On to `O=C(O)c1ccc(F)cc1-c1ccc2c(c1)OC[C@H](Cc1ccccc1)[C@H]2O` (stereo in doubt; 9), for which the IC50 on Leukotriene B4 receptor [1] is 3 nM; against Leukotriene B4 receptor [2] it was 14 nM; against Leukotriene B4 receptor [3] it was 240 nM; against Leukotriene B4 receptor [4], 600 nM.

As to `O=C(O)c1ccc(C(F)(F)F)cc1-c1ccc2c(c1)OC[C@H](Cc1ccc(Cl)cc1)[C@H]2O`, the 50% inhibitory concentration (IC50) amounted to 70 nM at Leukotriene B4 receptor [1] and 58 nM at Leukotriene B4 receptor [2].

For `O=S(=O)(Nc1ccc(F)cc1-c1ccc2c(c1)OC[C@H](Cc1ccccc1)[C@H]2O)C(F)(F)F` (stereo in doubt; 38), the half-maximal inhibitory concentration (IC50) is recorded as 3.8 nM at Leukotriene B4 receptor [1], 15 nM against Leukotriene B4 receptor [2], 360 nM against Leukotriene B4 receptor [3] and 330 nM against Leukotriene B4 receptor [4].

In the case of `O=C(O)c1c(F)cccc1-c1ccc2c(c1)OC[C@H](Cc1ccccc1)[C@H]2O` (stereo in doubt; 14), the half-inhibitory concentration (IC50) on Leukotriene B4 receptor [1] came out at 240 nM; on Leukotriene B4 receptor [2], 650 nM.

Consider `O=C(O)c1ccc(C(F)(F)F)cc1-c1ccc2c(c1)OC[C@H](Cc1ccc(-c3ccccc3)cc1)[C@H]2O` (stereo in doubt; 26), for which the 50% inhibitory concentration (IC50) on Leukotriene B4 receptor [1] amounted to 38 nM; on Leukotriene B4 receptor [2] it was 6 nM; against Leukotriene B4 receptor [3], 120 nM; against Leukotriene B4 receptor [4], 1900 nM.

As for `CC(C)c1ccc(C[C@H]2COc3cc(-c4cc(F)ccc4C(=O)O)ccc3[C@@H]2O)cc1`, the IC50 at Leukotriene B4 receptor [1] is reported as 190 nM; against Leukotriene B4 receptor [2] it was 210 nM.

Consider `O=C(O)c1cc(F)ccc1-c1ccc2c(c1)OC[C@H](Cc1ccccc1)[C@H]2O`, for which the IC50 at Leukotriene B4 receptor [1] worked out at 24 nM; on Leukotriene B4 receptor [2] it was 300 nM.

Regarding `O=C(O)c1ccc(Cl)cc1-c1ccc2c(c1)OC[C@H](Cc1ccccc1)[C@H]2O` (stereo in doubt; 7), the values for the IC50 at Leukotriene B4 receptor [1] and at Leukotriene B4 receptor [2] were 200 nM and 83 nM, respectively.

On to `O=C(O)c1ccc(F)cc1-c1ccc2c(c1)OC[C@H](Cc1ccccc1)[C@H]2O` (stereo in doubt; 8), for which the figures for the IC50 at Leukotriene B4 receptor [1] and against Leukotriene B4 receptor [2] were 12 nM and 5 nM, respectively.

For the compound `O=C(O)c1ccc(C(F)(F)F)cc1-c1ccc2c(c1)OC[C@H](Cc1ccccc1)[C@H]2O` (stereo in doubt; 15) [CP-195543], the results for the IC50 at Leukotriene B4 receptor [1] and at Leukotriene B4 receptor [2] were 13 nM and 7 nM, respectively.

In the case of `OCc1ccc(C(F)(F)F)cc1-c1ccc2c(c1)OC[C@H](Cc1ccccc1)[C@H]2O`, the concentration for half-maximal inhibition (IC50) at Leukotriene B4 receptor [1] is 1700 nM; against Leukotriene B4 receptor [2], 9 nM.

`O=C(O)c1c(F)cccc1-c1ccc2c(c1)OC[C@H](Cc1ccccc1)[C@H]2O` (stereo in doubt; 12): the IC50 at Leukotriene B4 receptor [1] came out at 22 nM; against Leukotriene B4 receptor [2], 10 nM.

Take `O=S(=O)(Nc1ccc(F)cc1-c1ccc2c(c1)OC[C@H](Cc1ccccc1)[C@H]2O)C(F)(F)F` (stereo in doubt; 39): the IC50 at Leukotriene B4 receptor [1] is listed as 50 nM; against Leukotriene B4 receptor [2], 44 nM; on Leukotriene B4 receptor [3], more than 3000 nM; on Leukotriene B4 receptor [4], more than 3000 nM.

`O=C(O)c1ccc(F)cc1-c1ccc2c(c1)OC[C@H](Cc1ccc(C(F)(F)F)cc1)[C@H]2O`: the results for the IC50 at Leukotriene B4 receptor [1] and against Leukotriene B4 receptor [2] were 54 nM and 1800 nM, respectively.

Regarding `O=C(O)c1ccc(Cl)cc1-c1ccc2c(c1)OC[C@H](Cc1ccc(-c3ccccc3)cc1)[C@H]2O` (stereo in doubt; 23), the IC50 worked out at 8 nM at Leukotriene B4 receptor [1], 26 nM against Leukotriene B4 receptor [2], 590 nM against Leukotriene B4 receptor [3] and 3900 nM against Leukotriene B4 receptor [4].

As to `O=C(O)c1ccc(Cl)cc1-c1ccc2c(c1)OC[C@H](Cc1ccc(F)cc1)[C@H]2O`, the half-inhibitory concentration (IC50) at Leukotriene B4 receptor [1] worked out at 54 nM; at Leukotriene B4 receptor [2], 400 nM.

As to `O=C(O)c1ccc(F)cc1-c1ccc2c(c1)OC[C@H](Cc1ccc(-c3ccccc3)cc1)[C@H]2O` (stereo in doubt; 25), the IC50 on Leukotriene B4 receptor [1] is listed as 14 nM; against Leukotriene B4 receptor [2] it was 5 nM; against Leukotriene B4 receptor [3], 700 nM; at Leukotriene B4 receptor [4], 5100 nM.

For the compound `O=C(O)c1c(F)cccc1-c1ccc2c(c1)OC[C@H](Cc1ccccc1)[C@H]2O` (stereo in doubt; 13), the IC50 at Leukotriene B4 receptor [1] amounted to 11 nM; at Leukotriene B4 receptor [2] it was 40 nM; against Leukotriene B4 receptor [3], 400 nM; at Leukotriene B4 receptor [4], 1000 nM.

The record behind these values is ChEMBL document CHEMBL1130879, “trans-3-Benzyl-4-hydroxy-7-chromanylbenzoic acid derivatives as antagonists of the leukotriene B4 (LTB4) receptor” (Bioorg Med Chem Lett, 1998).
